Measured values taken from patent publication US9115145B2, “Tocotrienol derivatives and associated methods” (FIRST TECH INTERNATIONAL LIMITED, priority 2011, dated 2015).
Where two headings read alike, the source gives them in different places.

Assays:
[1] = test system: +SA mammary epithelial cells; assay: MTT assay of +SA cells (antiproliferative activity); format: cell-based, mouse; conditions: 24 hours treatment, read-out: IC50 antiproliferative activity against +SA mammary epithelial cells
How it was run: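 Mouse +SA mammary adenocarcinoma cells in serum-free DMEM/F12 were grown 3 days, then treated 24 h with BSA-conjugated compounds (0–40 μM; DMSO <0.1%). Viable cell number came from MTT (570 nm) against a cell standard curve. IC50 was derived by linear regression.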

[2] = test system: 60 human tumor cell lines; assay: NCI in vitro screening against 60 human cell lines, single concentration; format: cell-based; conditions: 10 μM dose; negative values indicate cytotoxicity
Method: Compounds selected from Compounds 3-44 were provided to the National Cancer Institute for in vitro screening against 60-human cell lines for their ability to inhibit the growth of tumor cells in a full panel representing nine different organs (blood, lung, colon, CNS, skin, ovary, kidney, prostate, and breast). The compounds were tested at a single concentration of 10 μM, and the percentages of growth inhibitions over the sixty tested cell lines were determined. Compounds showing the highest activity were chosen for secondary assays using five different compound concentrations.
The human tumor cell lines of the cancer screening panel were grown in RPMI 1640 medium containing 5% fetal bovine serum and 2 mM L-glutamine. For a typical screening experiment, cells are inoculated into 96 well microtiter plates in 100 μL at plating densities ranging from 5000 to 40,000 cells/well depending on the doubling time of individual cell lines. After cell inoculation, the microtiter plates are incubated at 37° C., 5% CO2, 95% air and 100% relative humidity for 24 hours prior to addition of experimental drugs. After 24 hours, two plates of each cell line are fixed in situ with Trichloroacetic acid (“TCA”), to represent a measurement of the cell population for each cell line at the time of drug addition. Experimental drugs are solubilized in dimethyl sulfoxide at 400-fold the desired final maximum test concentration and stored frozen prior to use. At the time of drug addition, an aliquot of frozen concentrate is thawed and diluted to twice the desired final maximum test concentration with complete medium containing 50 ng/mL gentamicin. An aliquot of 100 μL of this drug dilution is added to the appropriate microtiter wells already containing 100 μL of medium, resulting in the required final drug concentrations. Following drug addition, the plates are incubated for an additional 48 h at 37° C., 5% CO2, 95% air, and 100% relative humidity. For adherent cells, the assay is terminated by the addition of cold TCA. Cells are fixed in situ by the gentle addition of 50 μL of cold 50% (w/v) TCA (final concentration, 10% TCA) and incubated for 60 min at 4° C. The supernatant is discarded, and the plates are washed five times with tap water and air dried. Sulforhodamine B (SRB) solution (100 μL) at 0.4% (w/v) in 1% acetic acid is added to each well, and plates are incubated for 10 min at room temperature. After staining, unbound dye is removed by washing five times with 1% acetic acid and the plates are air dried. Bound stain is subsequently solubilized with 10 mM trizma base, and the absorbance is read on an automated plate reader at a wavelength of 515 nm. For suspension cells, the methodology is the same except that the assay is terminated by fixing settled cells at the bottom of the wells by gently adding 50 μL of 80% TCA (final concentration, 16% TCA). FIGS. 37-74 indicate the growth inhibition effects of selected Compounds against a variety of cell lines based on the above described testing configuration. FIGS. 37-74 present the Growth percent for a given compound against the cell lines and both values and a bar chart of the difference between the mean growth percent and the growth percent which is an indication of the selectivity of the compound for that particular cell line.

Compound | IC50 [1] [µM] | mean percent growth across all 60 cell lines (mean 60) [2] | IC50 ([1]; Mus musculus, +SA cell) [µM]
CC(C)=CCC/C(C)=C/CC/C(C)=C/CC[C@]1(C)CCc2cc(O)c(C)c(C)c2O1 [Compound 1, γ-tocotrienol, reference compound] | 4 | inactive | 
COc1ccc(CCNCc2c(O)c(C)c(C)c3c2CC[C@@](C)(CC/C=C(\C)CC/C=C(\C)CCC=C(C)C)O3)cc1OC [Compound 30, (R)-5-((3,4-dimethoxyphenethylamino)methyl)-2,7,8-trimethyl-2-((3E,7E)-4,8,12-trimethyltrideca-3,7,11-trienyl)chroman-6-ol] |  | comparable to the activity of Compound 1 | 3.19
